Source: patent publication US20120289541A1 (NOVARTIS AG, priority 2010, published 2012)
Like-named read-outs stand apart in the source and are kept apart here.

Experiments:
in vitro [1] = assay type: in vitro ADME; settings: bovine, pH 7.4
Excerpt: The volume of serous middle ear fluid (MEF) that accumulates in non-infected chinchillas with Eustachian tube obstruction varies greatly. […] It became necessary to formulate an artificial middle ear fluid (AMEF) that mimics the MEF.

in vitro [2] = test: in vitro
[3] = cited from earlier work
[4] = Non-specific binding to ultrafiltration device in PBS
[5] = External ear dosing of 3% moxigel after 10% or 50% IPM pretreatment, MEF microdialysis; settings: 3% moxigel 9 mg external ear, mean

- fraction unbound at 220 μg/ml (in vitro [1]; isolated protein): 0.84 ± 0.063
- fraction unbound at 492 μg/ml (in vitro [1]; isolated protein): 0.92 ± 0.013
- fraction unbound (in vitro [1]): 0.84 to 0.92
- fraction unbound at 492 μg/ml (in vitro [2]): 0.75 ± 0.02
- fraction unbound [4]: ~1
- fraction unbound at 220 μg/ml [4]: 0.97 ± 0.026
- Time to reach 10 μg/mL [5]: 618 min
- elimination rate constant (high intrabulla dose (150 μg)): 0.0075 ± 0.0010 min⁻¹
- elimination rate constant (intrabulla dosing, mean of both doses): 0.0093 min⁻¹
- elimination rate constant (low intrabulla dose (50 μg)): 0.0102 ± 0.0040 min⁻¹
SMILES: COc1c(N2C[C@@H]3CCCN[C@@H]3C2)c(F)cc2c(=O)c(C(=O)O)cn(C3CC3)c12 [moxifloxacin]
- mean AUC ([3]; human, in vivo, po, 400 mg): 2170 µg·min/mL
- concentration observed in plasma ([3]; humans, oral dose of 400 mg, Owens & Ambrose 2002): 2.0 µg/mL
- total (bound plus free) maximum concentration in plasma ([3]; humans, oral dose of 400 mg): 3.1 µg/mL
